Reference: paper PMC6348381, “Discovery of an MLLT1/3 YEATS Domain Chemical Probe” (Angewandte Chemie (International Ed. in English), 2018)

Legend:
MLLT1 YD = target: T1, MLLT1 YD (Homo sapiens, UniProt Q03111); assay: AlphaScreen (AS) assay, MLLT1 YEATS domain; assay type: binding
T1 construct: made in house; host or cells: E. coli Rosetta
T1 sequence (Q03111 1-138 limits assumed): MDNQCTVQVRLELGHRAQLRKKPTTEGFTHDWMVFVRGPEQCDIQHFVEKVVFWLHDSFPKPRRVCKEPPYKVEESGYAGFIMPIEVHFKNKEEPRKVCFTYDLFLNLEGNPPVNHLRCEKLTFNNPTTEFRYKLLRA
Protocol: II.IV Protein Expression and Purification
Human bromodomains were cloned, expressed and purified as previously described. The cloning, expression and purification of human YEATS domains are described as follows; Sequences for the wild type YEATS domains of MLLT1, MLLT3, GAS41 and YEATS2 were cloned into expression vectors (Table S1). E. coli Rosetta cells were grown in TB medium at 37°C. Overexpression was induced after five hours by addition of IPTG to a final concentration of 0.4 mM and cells were incubated at 17°C overnight. Cells were harvested by centrifugation and the cell pellet was resuspended in cold binding buffer (50 mM Tris at pH 7.5, 500 mM NaCl, 20 mM imidazole, 2 mM DTT) on a magnetic stirring plate at 4°C. The suspension was lysed using an Avestin EmulsiFlex-C5 homogeniser (1 pass without pressure, four passes with pressure between 1000-1500 bar). The lysate was clarified via centrifugation at 16,000 rpm at 4°C for 1 hour (JLA-16 rotor in Beckmann Coulter Avanti J- […]
The supernatant was loaded onto a standard NiNTA column (HisTrap
FF, 5 ml, GE Healthcare Lifesciences) on an ÄKTAxpress system (GE). After washing with binding buffer, the target protein was eluted at 300 mM imidazole. The eluted peak fractions were pooled and concentrated to 5 ml (Amicon concentrators, 10 kDa molecular weight cut off (MWCO)) and then separated via size exclusion chromatography (buffered with 20 mM Tris at pH 7.5, 500 mM NaCl, 2 mM DTT) using a GE Superdex 75 column on an […]
(NanoDrop ND-1000 Spectrophotometer) and protein identity was verified via SDS-PAGE and LC/MS. Pooled fractions were then again concentrated to at least 2 mg/ml and stored at […]
(§1) (1 picture or pasted object on this page, not shown here)

MLLT3 YD = target: T2, MLLT3 YD (Homo sapiens, UniProt P42568); assay: Isothermal titration calorimetry (ITC), MLLT3 YD; assay type: binding
T2 construct: made in house; host or cells: E. coli Rosetta
Protocol: Supplementary Table 1. AlphaScreen selectivity screen of compound 92 over other acyllysine […]
II.III Isothermal Titration Calorimetry (ITC)
Experiments were carried out on a Nano -ITC Standard Volume Instrument (TA Instruments).
All experiments were carried out at 25 °C in 20 mM HEPES pH 7.5, 150 mM NaCl, 0.5 mM TCEP and 5% glycerol. Protein soluti ons were buffer exchanged by gel filtration. The titrations were conducted using an initial injection of 2 μL followed by 32 injections of 8 μL.
Background dilution heat was subtracted from each experiment. Thermodynamic parameters […]
changes in free energy, enthalpy and entropy respectively. Independent single site binding models were employed in data analysis.
(also on this page, place not known: ac yllysine Nano-ITC -T 1/ KB. ΔH Molar&ratio&[injectant/cell] Time&[s] Corrected&Heat&Rate&[ucal/s] Experiment&1 K Experiment&2 K K)
as §1

[1] = target: T3, endogenous MLLT1 in MV4;11 cells (Homo sapiens, UniProt Q03111); assay: Cellular thermal shift assay (CETSA), MV4;11 cells; assay type: cell-based; conditions: up to 10 μM
T3 construct: with endogenous MLLT1 in MV4;11 cells; endogenous in cells; host or cells: MV4;11
T3 sequence (Q03111 whole entry): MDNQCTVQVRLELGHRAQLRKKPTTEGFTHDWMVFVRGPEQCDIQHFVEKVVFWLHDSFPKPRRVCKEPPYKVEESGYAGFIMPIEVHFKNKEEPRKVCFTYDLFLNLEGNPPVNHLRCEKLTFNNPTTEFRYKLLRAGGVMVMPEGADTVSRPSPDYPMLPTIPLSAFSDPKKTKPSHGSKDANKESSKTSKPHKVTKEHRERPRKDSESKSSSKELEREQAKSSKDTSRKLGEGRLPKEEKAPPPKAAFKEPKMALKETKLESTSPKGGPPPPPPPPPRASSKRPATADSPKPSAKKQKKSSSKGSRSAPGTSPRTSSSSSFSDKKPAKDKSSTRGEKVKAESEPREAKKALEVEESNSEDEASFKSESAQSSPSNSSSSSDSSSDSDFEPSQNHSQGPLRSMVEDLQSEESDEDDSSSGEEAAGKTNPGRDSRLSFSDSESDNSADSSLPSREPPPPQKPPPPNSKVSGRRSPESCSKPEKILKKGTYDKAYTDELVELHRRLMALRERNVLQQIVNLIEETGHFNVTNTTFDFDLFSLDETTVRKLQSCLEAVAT
Protocol: Supplementary Table 2. Thermal stabilisation of compound 1, 92 and Bromosporine with recombinant human bromodomain proteins. *50 µM compound concentration. †10 µM compound […]
II.VIII Cellular Thermal Shift Assay[6]
HEK293 and MV4;11 cells were cultured at 37 °C in a humidified 5% CO2 atmosphere in DMEM Medium containing 10% FBS, respectively. Cells were grown until approximately […]
DMSO final concentrati on) for 30 minutes. Cells were then collected, washed with PBS, transferred in PCR tubes, and pelleted by centrifugation (300 g, 3 min, RT.) The PBS was removed, and the cell pellets heated at the indicated temperature for 3 minutes in a PCR machine (UNO96 , VMR) and then placed on ice. Lysis buffer (50 mM Tris pH 7.5, 0.8% v/v NP-40, 5% v/v glycerol, 1.5 mM MgCl2, 100 mM NaCl, 25 mM NaF, 1mM Na3VO4, 1mM PMSF, 1mM DTT, 10 μg/mL TLCK, 1 μg/mL Leupeptin, 1 μg/mL Aprotinin, 1 μg/mL soy bean trypsin, ≥250 units/ mL Benzonase) was added and the cells lysed by 3 freeze -thaw cycles in liquid nitrogen. Aggregated proteins were removed by centrifugation (17000 g, 20 min, 4 °C) and the protein concentration of the retained soluble fraction determined. 4× sample loading buffer (Bio-Rad) containing 20% v/v DTT was added and samples were heated for 6 min at 90 °C prior to separation by SDS -PAGE. […]

MLLT3 = target: T4, MLLT3 (Homo sapiens, UniProt P42568); assay: NanoBRET assay, full-length MLLT3-NanoLuc / histone H3.3-HaloTag in HEK293 cells; assay type: cell-based; conditions: 24 h
T4 construct: in full length MLLT3 N-terminal NanoLuc, Histone; host or cells: HEK293
T4 sequence (P42568 1-568): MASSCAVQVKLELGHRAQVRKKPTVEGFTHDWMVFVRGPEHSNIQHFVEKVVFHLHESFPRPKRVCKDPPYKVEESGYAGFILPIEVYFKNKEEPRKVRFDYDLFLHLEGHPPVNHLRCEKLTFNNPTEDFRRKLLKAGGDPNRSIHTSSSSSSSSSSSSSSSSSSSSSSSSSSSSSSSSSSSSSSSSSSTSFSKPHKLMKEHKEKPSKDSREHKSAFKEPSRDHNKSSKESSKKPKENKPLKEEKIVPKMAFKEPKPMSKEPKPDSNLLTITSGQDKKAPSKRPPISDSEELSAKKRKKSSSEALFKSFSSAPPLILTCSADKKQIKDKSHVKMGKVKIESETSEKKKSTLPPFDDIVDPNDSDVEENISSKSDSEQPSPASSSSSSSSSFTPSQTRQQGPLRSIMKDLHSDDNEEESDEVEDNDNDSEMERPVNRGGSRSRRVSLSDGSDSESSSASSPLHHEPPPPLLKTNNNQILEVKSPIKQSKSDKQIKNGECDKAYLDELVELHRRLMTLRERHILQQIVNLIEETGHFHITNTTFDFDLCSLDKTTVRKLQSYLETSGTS
Protocol: II.V NanoLuciferase Bioluminescent Resonance Energy Transfer (NanoBRET) Assay[2]
HEK293 cells ([…]) were plated in each well of a 6-well plate after 6 h cells were co-transfected with Histone H3.3-HaloTag (NM_002107) and a NanoLuciferase fusion of MLLT1 or MLLT3 (WT sequences from Promega HaloTag® human ORF in pFN21A) at a 1:500 and 1:10 (NanoLuc® to HaloTag®) ratio respectively with FuGENE HD transfection regent. Sixteen hours post-transfection, cells were collected and exchanged into media containing phenol red-free DMEM and 4% FBS in the absence (control sample) or the presence (experimental sample) of 100 nM NanoBRET 618 fluorescent ligand (Promega).
Cell density was adjusted to 2 x 10^5 cells/mL and then seeded 100 µL/well in a white 96-well plate (Corning Costar #3917). Compounds were then added directly to media (in the presence of SAHA 2.5 µM) at final concentrations 0.01-30 μM or an equivalent amount of DMSO as a vehicle control, and the plates were incubated for 24 h at 37 °C in the presence […]
NanoBRET Nano-Glo substrate (Promega) was added to both control and experimental samples at a final concentration of 10 µM. Readings were performed within 5 minutes using a ClarioSTAR (BMG labtech) equipped with LP 480 and 610 nm filters. A corrected BRET ratio was calculated and is defined as the ratio of the emission at 610 nm/[…] for experimental samples minus the emission at 6 10 nm/640 nm for control samples (not incubated with NanoBRET fluorescent ligand). BRET ratios are expressed as milliBRET units (mBU), where 1 mBU corresponds to the corrected BRET ratio multiplied by 1000.
3.3 C-terminal HaloTag in HEK293 cells. Treatment with SAHA (2.5 µM) alone increases MLLT3- […]
dependent manner. Mean±SD of BRET ratio (mBU), n=4 technical replicates.
(also on this page, place not known: 5) -well H3.3 -HaloTag pFN21A ) ( NanoLuc® H aloTag®) post -transfection, red -free Nano -Glo 10 5 6 10 6 10 l igand). cells . […]

MV4;11 AML cells = assay: qPCR gene expression in MV4;11 cells; assay type: cell-based, human; conditions: 1 μM, 72 h
Protocol: II.XII Analysis of gene expression by quantitative polymerase chain reaction (qPCR) […]
MV4;11 cells were cultured at 37 °C in a humidified 5% CO2 atmosphere in RPMI medium containing 10% FBS and 1% L-glutamine. Cells were seeded at a density of 2 x 10^6 cells/well in 6 well plates pre-coated in polyhema, to enable suspension culture. Cells were […]
and washing with PBS, RNA was extracted from cells using RNeasy Mini Kit (Qiagen), following the manufacturer’s protocol. Total RNA was quantified by Nanodrop and 500 ng of RNA was converted to cDNA using GoScript Reverse Transcription System (Promega). The final cDNA products were quantified by QPCR using FAM dye-labelled Taqman primers and probe sets (see table below). Data was analysed using the comparative cycle threshold (CT) method where CT values were normalised by subtracting that from an endogenous housekeeping gene (VIC dye-labelled ACTB). The gene expression levels from compound-treated cells are presented as relative to those of DMSO treated control cells. Statistical analyses were carried out using two-way ANOVA (GraphPad Prism 7).
ACTB (Beta Actin) Endogenous Control 4326315E
Supplementary Table 4. Taqman Gene Expression Assays (Life Technologies). Taqman MGB probes have 5’ FAM reporter dye (or VIC) and 3’ non-fluorescent quencher. […]

MLLT1 = target: T5, MLLT1 (Homo sapiens, UniProt Q03111); assay: NanoBRET assay, full length MLLT1:Histone 3.3 in HEK293 cells; assay type: cell-based; conditions: relative to the DMSO control
T5 construct: We also developed a full length MLLT1:Histone 3.3 (H3.3) NanoBRET assay; host or cells: HEK293
T5 sequence (Q03111 whole entry): as the sequence (Q03111 whole entry) above
Protocol: Compounds were then added directly to media (in the presence of SAHA 2.5 M) at final concentrations 0.01-30 μM or an equivalent amount of DMSO as a vehicle control, and the plates were incubated for 24 h at 37 °C in the presence

| Structure (SMILES) | IC50 (MLLT1 YD) [nM] | further results |
| --- | --- | --- |
| O=C(Nc1ccc2[nH]c(CN3CCCCC3)nc2c1)c1ccccc1Cl [Compound 68] | > 20000 |  |
| COc1ccccc1C(=O)Nc1ccc2[nH]c(CN3CCCCC3)nc2c1 [Compound 69] | > 20000 |  |
| O=C(Nc1ccc2[nH]c(CN3CCCCC3)nc2c1)c1cccc(OC(F)(F)F)c1 [Compound 70] | > 20000 |  |
| Cc1ccc(C(=O)Nc2ccc3[nH]c(CN4CCCCC4)nc3c2)cc1C [Compound 72] | 5500 ± 60 |  |
| COc1ccc(C(=O)Nc2ccc3[nH]c(CN4CCCCC4)nc3c2)cc1 [Compound 74] | 6400 ± 650 |  |
| O=C(Nc1ccc2[nH]c(CN3CCCCC3)nc2c1)c1ccc(-n2ccnc2)cc1 [Compound 77] | 1000 ± 590 |  |
| Cn1ncc2cc(C(=O)Nc3ccc4[nH]c(CN5CCCCC5)nc4c3)ccc21 [Compound 79] | 1600 ± 540 |  |
| C[C@@H]1CCC[C@H](C)N1Cc1nc2cc(NC(=O)c3ccc(Cl)cc3)ccc2[nH]1 [Compound 80] | > 20000 |  |
| CC(c1nc2cc(NC(=O)c3ccc(Cl)cc3)ccc2[nH]1)N1CCCCC1 (stereo not drawn) [Compound 81] | > 20000 |  |
| C[C@@H]1C[C@H](C)CN(Cc2nc3cc(NC(=O)c4ccc5c(cnn5C)c4)ccc3[nH]2)C1 [Compound 82] | 5700 ± 2400 |  |
| CC1CCN(Cc2nc3cc(NC(=O)c4ccccc4)ccc3[nH]2)CC1 [Compound 83] | > 20000 |  |
| O=C(Nc1ccc2[nH]c(CCN3CCCCC3)nc2c1)c1ccc(Cl)cc1 [Compound 84] | > 20000 |  |
| CC1CCCN1Cc1nc2cc(NC(=O)c3ccc(Cl)cc3)ccc2[nH]1 (stereo not drawn) [Compound 85] | 330 ± 110 |  |
| Cn1ncc2cc(C(=O)Nc3ccc4[nH]c(CN5C[C@H]6C[C@H]6C5)nc4c3)ccc21 [Compound 86] | 1400 ± 860 |  |
| CCC1CCCN1Cc1nc2cc(NC(=O)c3ccc4c(cnn4C)c3)ccc2[nH]1 (stereo not drawn) [Compound 87] | 300 ± 60 |  |
| COCC1CCCN1Cc1nc2cc(NC(=O)c3ccc4c(cnn4C)c3)ccc2[nH]1 (stereo not drawn) [Compound 88] | 970 ± 470 |  |
| CC1CCN(Cc2nc3cc(NC(=O)c4ccc5c(cnn5C)c4)ccc3[nH]2)C1 (stereo not drawn) [Compound 89] | 600 ± 460 |  |
| CC1CCN(Cc2nc3cc(NC(=O)c4ccc5c(cnn5C)c4)ccc3[nH]2)C1 (stereo not drawn) [Compound 90] | 730 ± 590 |  |
| C[C@@H]1CCCN1Cc1nc2cc(NC(=O)c3ccc4c(cnn4C)c3)ccc2[nH]1 [Compound 91] |  | Kd (MLLT3 YD): 540 nM; thermal stabilisation of MLLT1 (CETSA) [1]: no thermal stabilisation; IC50 (MLLT3; in the presence of 2.5 μM SAHA): 5800 ± 70 nM; gene expression of MYC, MPO, DDN, CTSG, CD86 (qPCR) (MV4;11 AML cells): diminished cell activity |
| O=C(CCCCCCC(=O)Nc1ccccc1)NO [SAHA, suberoylanilide hydroxamic acid, reference compound] |  | BRET activity (mBU), MLLT1:H3.3 NanoBRET (MLLT1): significant increase in BRET activity; MLLT3-Histone 3.3 interaction (mBU) (MLLT3; representative assay): increases |
